Reference: US6818798B1, “Process for making a (3R,3′R)-zeaxanthin precursor” (University of Maryland, College Park, priority 2000, dated 2004)

Tests used:
Format in all cases: physicochemical
[1] = Solubility in non-polar hydrocarbon / organic solvents; conditions: pentane, hexane, heptane, cyclohexane, petroleum ether (b.p.=35-60° C.)
Experimental: Such solvents include pentane, hexane, heptane, cyclohexane, petroleum ether (b.p.=35-60° C.) and the like. Based on this difference in solubility behavior, a number of processes were developed which allowed the partial separation of 3′-epilutein from (3R,3′R,6′R)-lutein. These methods are a) solvent extraction, b) preferential crystallization, c) Soxhlet extraction, d) enzymatic acylation, and e) supercritical extraction with carbon dioxide. When each of these methods is applied separately to a 1:1 mixture of (3R,3′R,6′R)-lutein and 3′-epilutein, the partial separation of these carotenoids was accomplished and 3′-epilutein was obtained in 77-95% enrichment. […] The enrichment of 3′-epilutein in poorly separated mixtures may be further increased by low-temperature crystallization of (3R,3′R,6′R)-lutein from a C1-4 alcohol. Alcohols suitable for this crystallization include ethanol, methanol, propanol, 2-propanol and the like. The temperature at which the crystallization may be performed is between about −80° C. and about −40° C. […]
While (3R,3′R,6′R)-lutein and (3R,3′R)-zeaxanthin are not acylated with lipase AK or lipase PS, 3′-epilutein undergoes acylation at C-3′ to give 3′-epilutein-3′-acetate. As mentioned above, due to the difference in solubility between (3R,3′R,6′R)-lutein and 3′-epilutein, the enzymatic acylation can be readily carried out in the above-mentioned organic solvents. […]

Solubility in hexane = conditions: printed as solvent volume per mass
Experimental: As pointed out above, the solubility of 3′-epilutein in solvents such as pentane, hexane, heptane, and petroleum ether (b.p.=35-60° C.) is much higher than that of (3R,3′R,6′R)-lutein. However; large scale separation with these non-polar hydrocarbons alone would require large volumes of solvents and is not practical. For example, the low solubility of 3′-epilutein in hexane (13 ml/mg) is indicative of the large volumes of this solvent needed for the partial separation of 3′-epilutein from (3R,3′R,6′R)-lutein by virtue of their differential solubilities. Therefore, a co-solvent may be employed to increase the solubility of 3′-epilutein and at the same time reduce the volume of the hydrocarbon solvent. […] Preferred ethers include diethyl ether, TBME, diisopropyl ether and the like. Preferred non-polar hydrocarbon solvents include pentane, hexane, heptane, petroleum ether and the like. The preferred petroleum ether is that fraction which boils at 35-60° C. The ratio of non-polar hydrocarbon solvent (or petroleum ether) to ether may range from 4:1, to about 2:1, more preferably, about 3:1. One of ordinary skill in the art may determine other ratios with no more than routine experimentation.

[2] = Solubility in supercritical carbon dioxide; conditions: 5 mg scale
Experimental: The partial separation of (3R,3′R,6′R)-lutein and 3′-epilutein was also found to be quite feasible by the use of supercritical fluid extraction with carbon dioxide.
5 mg of an epimeric mixture of (3R,3′R,6′R)-lutein and 3-epilutein prepared from 97% pure (3R,3′R,6′R)-lutein (Table 2) was mixed with 0.70 g of hydromatrix (mixture of silica gel and diatomaceous earth). This was extracted with carbon dioxide in a Model Prep-Master supercritical fluid extraction apparatus (Suprex-ISCO, Inc., Lincoln, Nebr.). The conditions were as follows: flow=2 ml/min, restrictor temperature=50° C., desorb temperature=10° C., oven temperature=35° C. A two step gradient was employed for extraction of 3′-epilutein. Step one used 100 g of carbon dioxide at 300 atmosphere and step two 50 g of carbon dioxide at 375 atmosphere. Total of 2.4 mg of carotenoids was extracted with this 150 g of carbon dioxide. The extracted carotenoids were shown by HPLC to consist of 3′-epilutein (83%), (3R,3′R,6′R)-lutein (13%), anhydrolutein (2%), and Z-luteins (2%). Approximately 2.5 mg of carotenoids remained in the hydromatrix; these were: (3R,3′R,6′R)-lutein (77%), 3′-epilutein (13%), and (3R,3′R)-zeaxanthin (10%).

Compound	solubility in non-polar solvents (in words) [1]	solubility in hexane (Solubility in hexane)	solubility in supercritical carbon dioxide (in words) [2]
CC(=O)OC1C=C(C)C(C=CC(C)=CC=CC(C)=CC=CC=C(C)C=CC=C(C)C=CC2=C(C)CC(O)CC2(C)C)C(C)(C)C1 (stereo not shown) [3′-epilutein-3′-acetate]	highly soluble	–	–
CC1=C[C@@H](O)CC(C)(C)[C@H]1/C=C/C(C)=C/C=C/C(C)=C/C=C/C=C(C)/C=C/C=C(C)/C=C/C1=C(C)C[C@@H](O)CC1(C)C [3′-epilutein, (3R,3′S,6′R)-lutein]	slightly more soluble than (3R,3′R,6′R)-lutein	13 mL/mg	by far greater than that of (3R,3′R,6′R)-lutein and (3R,3′R)-zeaxanthin
